In patent US10047096B2, “Substituted pyridobenzodiazepinone-derivatives and use thereof” (Bayer Pharma Aktiengesellschaft, priority 2014, dated 2018):

Target: human PDGFRβ (Homo sapiens (Human), UniProt P09619)
Test: PDGFRβ kinase assay (PDGFRβ-HTRF)
Format: biochemical
Settings: 10 μM ATP; some mean values from multiple determinations
How it was run: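 GST-fused human PDGFRβ fragment (R561-L1106) from Sf9 cells was preincubated 15 min with compound in 50 mM HEPES pH 7.5, 10 mM MgCl2, 2.5 mM DTT, 0.01% Triton X-100; substrate was biotinylated poly-Glu,Tyr (4:1).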

Sequence of human PDGFRβ (P09619 561-1106): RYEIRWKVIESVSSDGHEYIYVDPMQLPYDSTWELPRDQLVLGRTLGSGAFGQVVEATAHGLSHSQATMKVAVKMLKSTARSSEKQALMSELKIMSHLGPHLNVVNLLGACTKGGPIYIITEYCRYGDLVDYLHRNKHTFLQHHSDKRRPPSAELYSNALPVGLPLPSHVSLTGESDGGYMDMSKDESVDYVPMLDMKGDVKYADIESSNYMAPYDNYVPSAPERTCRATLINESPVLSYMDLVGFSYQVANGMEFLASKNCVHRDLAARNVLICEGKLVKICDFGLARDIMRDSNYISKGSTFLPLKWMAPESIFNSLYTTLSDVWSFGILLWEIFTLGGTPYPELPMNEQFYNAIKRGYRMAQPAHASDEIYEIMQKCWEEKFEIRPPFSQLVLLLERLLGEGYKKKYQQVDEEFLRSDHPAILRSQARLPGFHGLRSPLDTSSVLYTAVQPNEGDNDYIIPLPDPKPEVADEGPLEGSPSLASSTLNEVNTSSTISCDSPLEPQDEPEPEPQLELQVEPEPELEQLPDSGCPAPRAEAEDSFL

COc1cccc(CNCc2ccc3c(c2)NC(=O)c2c(Nc4cc(O)ccc4C)ccnc2N3)c1 [Example 96] and Cc1ccc(O)cc1Nc1ccnc2c1C(=O)Nc1cc(CNCc3cccc(F)c3)ccc1N2 [Example 120] are within 1.5-fold of each other in IC50: 2.1 nM for the first, 1.49 nM for the second.

Cc1ccc(O)cc1Nc1ccnc2c1C(=O)Nc1cc(CNCCn3ccnn3)ccc1N2 [Example 97] and CCCNCc1ccc2c(c1)NC(=O)c1c(Nc3cc(O)ccc3C)ccnc1N2 [Example 125] are within 1.5-fold of each other in IC50: 2.45 nM for the first, 1.97 nM for the second.

Cc1ccc(O)cc1Nc1ccnc2c1C(=O)Nc1cc(CNC3(C)CCS(=O)(=O)C3)ccc1N2 (stereo not drawn) [Example 98] and Cc1ccc(O)cc1Nc1ccnc2c1C(=O)Nc1cc(CNC3CCS(=O)(=O)C3)ccc1N2 (stereo not drawn) [Example 113] are within 1.5-fold of each other in IC50: 5.17 nM for the first, 3.6 nM for the second.

Cc1ccc(O)cc1Nc1ccnc2c1C(=O)Nc1cc(CNC3CCOC3)ccc1N2 (stereo not drawn) [Example 99] and Cc1ccc(O)cc1Nc1ccnc2c1C(=O)Nc1cc(CNC3CCOCC3)ccc1N2 [Example 136] are within 1.5-fold of each other in IC50: 2.97 nM for the first, 2.05 nM for the second.

Cc1ccc(O)cc1Nc1ccnc2c1C(=O)Nc1cc(CNC(C)C3CC=CCC3)ccc1N2 (stereo not drawn) [Example 100] and Cc1ccc(O)cc1Nc1ccnc2c1C(=O)Nc1cc(CN[C@H](C)C3CCCCC3)ccc1N2 [Example 102] are within 1.5-fold of each other in IC50: 1.66 nM for the first, 1.57 nM for the second.

Cc1ccn(CCCNCc2ccc3c(c2)NC(=O)c2c(Nc4cc(O)ccc4C)ccnc2N3)n1 [Example 101] and CCn1ccc(CNCc2ccc3c(c2)NC(=O)c2c(Nc4cc(O)ccc4C)ccnc2N3)n1 [Example 103] are within 1.5-fold of each other in IC50: 2.98 nM for the first, 3.46 nM for the second.

Compared with Cc1ccc(O)cc1Nc1ccnc2c1C(=O)Nc1cc(CNc3ccc4[nH]cnc4c3)ccc1N2 [Example 104], COc1ccc(NCc2ccc3c(c2)NC(=O)c2c(Nc4cc(O)ccc4C)ccnc2N3)cc1F [Example 107] is 1.5-fold higher in IC50: 12.2 nM for the first, 18.4 nM for the second.

Compared with Cc1ccc(O)cc1Nc1ccnc2c1C(=O)Nc1cc(CNc3ccn(C)n3)ccc1N2 [Example 105], Cc1ccc(O)cc1Nc1ccnc2c1C(=O)Nc1cc(CNc3ccccc3F)ccc1N2 [Example 147] is 3.6-fold higher in IC50: 14.6 nM for the first, 52.9 nM for the second. The first is the more potent here.

Cc1ccc(O)cc1Nc1ccnc2c1C(=O)Nc1cc(CNCCN3CCN(C)CC3)ccc1N2 [Example 109] and Cc1ccc(O)cc1Nc1ccnc2c1C(=O)Nc1cc(CNCCN3CCC(C)CC3)ccc1N2 [Example 110] are within 1.5-fold of each other in IC50: 3.55 nM for the first, 3.29 nM for the second.

Cc1ccc(O)cc1Nc1ccnc2c1C(=O)Nc1cc(CNCCN3CCCCCC3)ccc1N2 [Example 111] and Cc1ccc(O)cc1Nc1ccnc2c1C(=O)Nc1cc(CNCCN3CCCC3=O)ccc1N2 [Example 141] are within 1.5-fold of each other in IC50: 4.03 nM for the first, 3.48 nM for the second.

CCN(CC)CC(C)NCc1ccc2c(c1)NC(=O)c1c(Nc3cc(O)ccc3C)ccnc1N2 (stereo not drawn) [Example 112] and Cc1ccc(O)cc1Nc1ccnc2c1C(=O)Nc1cc(CNC(C)CN(C)C)ccc1N2 (stereo not drawn) [Example 122] are within 1.5-fold of each other in IC50: 2.34 nM for the first, 3.24 nM for the second.

Compared with Cc1ccc(O)cc1Nc1ccnc2c1C(=O)Nc1cc(CNCC(C)Cn3cccn3)ccc1N2 (stereo not drawn) [Example 114], CCC(C)CNCc1ccc2c(c1)NC(=O)c1c(Nc3cc(O)ccc3C)ccnc1N2 (stereo not drawn) [Example 153] is 2-fold higher in IC50: 1.83 nM for the first, 3.61 nM for the second. The first is the more potent here.

Compared with Cc1ccc(O)cc1Nc1ccnc2c1C(=O)Nc1cc(CNCCC(F)(F)F)ccc1N2 [Example 115], Cc1ccc(O)cc1Nc1ccnc2c1C(=O)Nc1cc(CNCCF)ccc1N2 [Example 126] is 1.8-fold lower in IC50: 3.93 nM for the first, 2.24 nM for the second.

COCCOCCCNCc1ccc2c(c1)NC(=O)c1c(Nc3cc(O)ccc3C)ccnc1N2 [Example 116] and COCCCNCc1ccc2c(c1)NC(=O)c1c(Nc3cc(O)ccc3C)ccnc1N2 [Example 129] are within 1.5-fold of each other in IC50: 4.75 nM for the first, 3.99 nM for the second.

Compared with Cc1ccc(O)cc1Nc1ccnc2c1C(=O)Nc1cc(CNC[C@H](C)c3ccccc3)ccc1N2 [Example 117], Cc1ccc(O)cc1Nc1ccnc2c1C(=O)Nc1cc(CNCc3ccccc3)ccc1N2 [Example 145] is 1.7-fold higher in IC50: 3.46 nM for the first, 5.82 nM for the second. The first is the more potent here.

First: CCOCCC(C)NCc1ccc2c(c1)NC(=O)c1c(Nc3cc(O)ccc3C)ccnc1N2 (stereo not drawn) [Example 118]
Second: CCC(CC)NCc1ccc2c(c1)NC(=O)c1c(Nc3cc(O)ccc3C)ccnc1N2 [Example 155]
The IC50 of the first is 1.7-fold higher: 4.02 nM for the first, 2.33 nM for the second.

Going from Cc1ccc(O)cc1Nc1ccnc2c1C(=O)Nc1cc(CNCc3ccc(F)cc3)ccc1N2 [Example 119] to Cc1ccc(O)cc1Nc1ccnc2c1C(=O)Nc1cc(CNCc3cccnc3)ccc1N2 [Example 146], the IC50 rises from 1.92 nM to 7.56 nM (3.9-fold). The first is the more potent here.

Compared with Cc1ccc(O)cc1Nc1ccnc2c1C(=O)Nc1cc(CNCCc3ccncc3)ccc1N2 [Example 123], Cc1ccc(O)cc1Nc1ccnc2c1C(=O)Nc1cc(CNCCN(C)C)ccc1N2 [Example 156] is 2.2-fold lower in IC50: 7.14 nM for the first, 3.31 nM for the second.

Cc1ccc(O)cc1Nc1ccnc2c1C(=O)Nc1cc(CNC3CCCCC3C)ccc1N2 (stereo not drawn) [Example 124] and Cc1ccc(O)cc1Nc1ccnc2c1C(=O)Nc1cc(CNC3CCCC3)ccc1N2 [Example 154] are within 1.5-fold of each other in IC50: 3.02 nM for the first, 2.1 nM for the second.

Cc1ccc(O)cc1Nc1ccnc2c1C(=O)Nc1cc(CNCC3CC3)ccc1N2 [Example 127] and Cc1ccc(O)cc1Nc1ccnc2c1C(=O)Nc1cc(CNC3CC3)ccc1N2 [Example 151] are within 1.5-fold of each other in IC50: 3.52 nM for the first, 3.71 nM for the second.

Cc1ccc(O)cc1Nc1ccnc2c1C(=O)Nc1cc(CNCC3CNC(=O)C3)ccc1N2 (stereo not drawn) [Example 130] and Cc1ccc(O)cc1Nc1ccnc2c1C(=O)Nc1cc(CNCC3CCC(=O)N3C)ccc1N2 (stereo not drawn) [Example 137] are within 1.5-fold of each other in IC50: 2.31 nM for the first, 1.68 nM for the second.

Cc1ccc(O)cc1Nc1ccnc2c1C(=O)Nc1cc(CNC(C)(C)CN3CCCC3)ccc1N2 [Example 131] and Cc1ccc(O)cc1Nc1ccnc2c1C(=O)Nc1cc(CNCC(C)(C)C)ccc1N2 [Example 142] are within 1.5-fold of each other in IC50: 2.05 nM for the first, 2.11 nM for the second.

Cc1ccc(O)cc1Nc1ccnc2c1C(=O)Nc1cc(CNC(C)c3ccco3)ccc1N2 (stereo not drawn) [Example 132] and Cc1ccc(O)cc1Nc1ccnc2c1C(=O)Nc1cc(CNC(C)C(C)C)ccc1N2 (stereo not drawn) [Example 157] are within 1.5-fold of each other in IC50: 2.89 nM for the first, 3.4 nM for the second.

Compared with Cc1ccc(O)cc1Nc1ccnc2c1C(=O)Nc1cc(CNCCOCC3CCCO3)ccc1N2 (stereo not drawn) [Example 133], Cc1ccc(O)cc1Nc1ccnc2c1C(=O)Nc1cc(CNCCCOC(C)C)ccc1N2 [Example 149] is 4.3-fold lower in IC50: 7.53 nM for the first, 1.74 nM for the second.

Cc1ccc(O)cc1Nc1ccnc2c1C(=O)Nc1cc(CNCC(C)N3CCOCC3)ccc1N2 (stereo not drawn) [Example 135] and Cc1ccc(O)cc1Nc1ccnc2c1C(=O)Nc1cc(CNCC(C)C)ccc1N2 [Example 152] are within 1.5-fold of each other in IC50: 5.74 nM for the first, 4.42 nM for the second.

Cc1ccc(O)cc1Nc1ccnc2c1C(=O)Nc1cc(CNC3CCN(C)CC3)ccc1N2 [Example 138] and Cc1ccc(O)cc1Nc1ccnc2c1C(=O)Nc1cc(CNC3CCCNC3=O)ccc1N2 (stereo not drawn) [Example 139] are within 1.5-fold of each other in IC50: 2.41 nM for the first, 3.58 nM for the second.

Cc1ccc(O)cc1Nc1ccnc2c1C(=O)Nc1cc(CNCC3CCN(C(C)C)C3)ccc1N2 (stereo not drawn) [Example 140] and Cc1ccc(O)cc1Nc1ccnc2c1C(=O)Nc1cc(CNCC(O)CO)ccc1N2 (stereo not drawn) [Example 148] are within 1.5-fold of each other in IC50: 1.64 nM for the first, 1.52 nM for the second.

Cc1ccc(O)cc1Nc1ccnc2c1C(=O)Nc1cc(CNCCC(=O)N(C)C)ccc1N2 [Example 143] and Cc1ccc(O)cc1Nc1ccnc2c1C(=O)Nc1cc(CNCC(C)(C)N(C)C)ccc1N2 [Example 144] are within 1.5-fold of each other in IC50: 5.55 nM for the first, 7.72 nM for the second.

For Cc1cc(F)c(Nc2ccnc3c2C(=O)Nc2cc(C(=O)N4C[C@H](O)C[C@H]4CO)ccc2N3)cc1O [Example 160, 4-[(2-Fluoro-5-hydroxy-4-methylphenyl)amino]-8-{[(2S,4R)-4-hydroxy-2-(hydroxymethyl)pyrrolidin-1-yl]carbonyl}-6,11-dihydro-5H-pyrido[2,3-b][1,5]benzodiazepin-5-one], the IC50 was 7.25 nM.
